Measured values taken from the CheMixHub viscosity set.
± gives the uncertainty stated by the source.

Experiment: xn = mol fraction of the nth substance listed

In the case of `CCCCCCBr` + ClC(Cl)(Cl)Cl, the viscosity (298.15 K, 101 kPa, x1 = 0.1135) is reported as 0.8881 ± 0.019 mPa·s, the viscosity (298.15 K, 101 kPa, x1 = 0.1518) is reported as 0.8858 ± 0.019 mPa·s and the viscosity (298.15 K, 101 kPa, x1 = 0.1823) is reported as 0.8835 ± 0.019 mPa·s. The viscosity (298.15 K, 101 kPa, x1 = 0.2319) was 0.8822 ± 0.019 mPa·s, the viscosity (298.15 K, 101 kPa, x1 = 0.3098) was 0.8844 ± 0.019 mPa·s and the viscosity (298.15 K, 101 kPa, x1 = 0.474) was 0.8943 ± 0.019 mPa·s. The viscosity (298.15 K, 101 kPa, x1 = 0.6449) was 0.9113 ± 0.02 mPa·s, the viscosity (303.45 K, 101 kPa, x1 = 0.0686) was 0.8329 ± 0.018 mPa·s and the viscosity (303.45 K, 101 kPa, x1 = 0.0894) was 0.8281 ± 0.018 mPa·s. The viscosity (303.45 K, 101 kPa, x1 = 0.1554) was 0.8277 ± 0.018 mPa·s, the viscosity (303.45 K, 101 kPa, x1 = 0.1952) was 0.8288 ± 0.018 mPa·s and the viscosity (303.45 K, 101 kPa, x1 = 0.2666) was 0.8328 ± 0.018 mPa·s. It also gave a viscosity (303.45 K, 101 kPa, x1 = 0.424) of 0.8436 ± 0.018 mPa·s, a viscosity (303.45 K, 101 kPa, x1 = 0.5955) of 0.8555 ± 0.018 mPa·s and a viscosity (303.45 K, 101 kPa, x1 = 0.7896) of 0.8708 ± 0.019 mPa·s. For the same compound, the viscosity (313.35 K, 101 kPa, x1 = 0.0691) was 0.7236 ± 0.016 mPa·s, the viscosity (313.35 K, 101 kPa, x1 = 0.0909) was 0.723 ± 0.016 mPa·s and the viscosity (313.35 K, 101 kPa, x1 = 0.1303) was 0.7251 ± 0.016 mPa·s. It also gave a viscosity (313.35 K, 101 kPa, x1 = 0.1568) of 0.7252 ± 0.016 mPa·s, a viscosity (313.35 K, 101 kPa, x1 = 0.1996) of 0.7259 ± 0.016 mPa·s and a viscosity (313.35 K, 101 kPa, x1 = 0.2736) of 0.7309 ± 0.016 mPa·s. The viscosity (313.35 K, 101 kPa, x1 = 0.5015) was 0.7462 ± 0.016 mPa·s and the viscosity (313.35 K, 101 kPa, x1 = 0.7896) was 0.7649 ± 0.017 mPa·s.

In the case of `CCCCCC(C)C` + CCCCO, the viscosity (293.15 K, 100 kPa, x2 = 0.1005) is reported as 0.528 ± 0.007 mPa·s, the viscosity (293.15 K, 100 kPa, x2 = 0.2014) is reported as 0.576 ± 0.008 mPa·s and the viscosity (293.15 K, 100 kPa, x2 = 0.3002) is reported as 0.634 ± 0.008 mPa·s. For the same compound, the viscosity (293.15 K, 100 kPa, x2 = 0.4) was 0.741 ± 0.009 mPa·s, the viscosity (293.15 K, 100 kPa, x2 = 0.5004) was 0.891 ± 0.011 mPa·s and the viscosity (293.15 K, 100 kPa, x2 = 0.6006) was 1.1 ± 0.01 mPa·s. For the same compound, the viscosity (293.15 K, 100 kPa, x2 = 0.7) was 1.37 ± 0.02 mPa·s, the viscosity (293.15 K, 100 kPa, x2 = 0.8001) was 1.74 ± 0.02 mPa·s and the viscosity (293.15 K, 100 kPa, x2 = 0.9) was 2.24 ± 0.03 mPa·s. For the same compound, the viscosity (303.15 K, 100 kPa, x2 = 0.1005) was 0.467 ± 0.007 mPa·s, the viscosity (303.15 K, 100 kPa, x2 = 0.2014) was 0.508 ± 0.007 mPa·s and the viscosity (303.15 K, 100 kPa, x2 = 0.3002) was 0.549 ± 0.008 mPa·s. It also gave a viscosity (303.15 K, 100 kPa, x2 = 0.4) of 0.635 ± 0.008 mPa·s, a viscosity (303.15 K, 100 kPa, x2 = 0.5004) of 0.748 ± 0.009 mPa·s and a viscosity (303.15 K, 100 kPa, x2 = 0.6006) of 0.902 ± 0.011 mPa·s. It also gave a viscosity (303.15 K, 100 kPa, x2 = 0.7) of 1.11 ± 0.01 mPa·s, a viscosity (303.15 K, 100 kPa, x2 = 0.8001) of 1.38 ± 0.02 mPa·s and a viscosity (303.15 K, 100 kPa, x2 = 0.9) of 1.75 ± 0.02 mPa·s. For the same compound, the viscosity (313.15 K, 100 kPa, x2 = 0.1005) was 0.413 ± 0.006 mPa·s, the viscosity (313.15 K, 100 kPa, x2 = 0.2014) was 0.447 ± 0.007 mPa·s and the viscosity (313.15 K, 100 kPa, x2 = 0.3002) was 0.476 ± 0.007 mPa·s. It also gave a viscosity (313.15 K, 100 kPa, x2 = 0.4) of 0.548 ± 0.008 mPa·s, a viscosity (313.15 K, 100 kPa, x2 = 0.5004) of 0.633 ± 0.008 mPa·s and a viscosity (313.15 K, 100 kPa, x2 = 0.6006) of 0.751 ± 0.009 mPa·s. The viscosity (313.15 K, 100 kPa, x2 = 0.7) was 0.906 ± 0.011 mPa·s, the viscosity (313.15 K, 100 kPa, x2 = 0.8001) was 1.11 ± 0.01 mPa·s and the viscosity (313.15 K, 100 kPa, x2 = 0.9) was 1.39 ± 0.02 mPa·s. For the same compound, the viscosity (323.15 K, 100 kPa, x2 = 0.1005) was 0.364 ± 0.006 mPa·s, the viscosity (323.15 K, 100 kPa, x2 = 0.2014) was 0.391 ± 0.006 mPa·s and the viscosity (323.15 K, 100 kPa, x2 = 0.3002) was 0.422 ± 0.006 mPa·s. It also gave a viscosity (323.15 K, 100 kPa, x2 = 0.4) of 0.473 ± 0.007 mPa·s, a viscosity (323.15 K, 100 kPa, x2 = 0.5004) of 0.539 ± 0.007 mPa·s and a viscosity (323.15 K, 100 kPa, x2 = 0.6006) of 0.633 ± 0.008 mPa·s. The viscosity (323.15 K, 100 kPa, x2 = 0.7) was 0.751 ± 0.009 mPa·s, the viscosity (323.15 K, 100 kPa, x2 = 0.8001) was 0.907 ± 0.011 mPa·s and the viscosity (323.15 K, 100 kPa, x2 = 0.9) was 1.12 ± 0.01 mPa·s.

Work on `CCCCOCCO` + CCC(C)=O yielded a viscosity (298.15 K, 101 kPa, x2 = 0.154) of 2.106 ± 0.015 mPa·s, a viscosity (298.15 K, 101 kPa, x2 = 0.2906) of 1.609 ± 0.011 mPa·s and a viscosity (298.15 K, 101 kPa, x2 = 0.4126) of 1.234 ± 0.009 mPa·s. The viscosity (298.15 K, 101 kPa, x2 = 0.5221) was 0.939 ± 0.007 mPa·s, the viscosity (298.15 K, 101 kPa, x2 = 0.6211) was 0.727 ± 0.005 mPa·s and the viscosity (298.15 K, 101 kPa, x2 = 0.7108) was 0.607 ± 0.004 mPa·s. For the same compound, the viscosity (298.15 K, 101 kPa, x2 = 0.7927) was 0.519 ± 0.004 mPa·s, the viscosity (298.15 K, 101 kPa, x2 = 0.8676) was 0.466 ± 0.003 mPa·s and the viscosity (298.15 K, 101 kPa, x2 = 0.9365) was 0.416 ± 0.003 mPa·s.

`c1ccc2c(c1)CCCC2` + c1ccccc1 showed a viscosity (298.15 K, 101 kPa, x1 = 0.1394) of 0.719 ± 0.0095 mPa·s, a viscosity (298.15 K, 101 kPa, x1 = 0.3016) of 0.8758 ± 0.011 mPa·s and a viscosity (298.15 K, 101 kPa, x1 = 0.493) of 1.098 ± 0.014 mPa·s. It also gave a viscosity (298.15 K, 101 kPa, x1 = 0.7222) of 1.445 ± 0.019 mPa·s.
